Laboratory results from US8921516B2, “Synthetic, defined fibronectin mimetic peptides and surfaces modified with the same” (Corning Incorporated, priority 2010, dated 2014).

Key:
[1] = system: A-172 human glioblastoma cancer cells; assay: A-172 cell attachment to peptide coated surfaces (images and MTS assay); type: cell-based; settings: A-172 cells, images and MTS assay (FIG. 4A and FIG. 4B); compared with BD BioCoat fibronectin surface
Description: FIG. 4A is an image of A-172 human glioblastoma cancer cells attached to a surface that has a coating thereon of […] (SEQ ID NO: 8) referred to therein as “DA2”, […] (SEQ ID NO: 9) referred to therein as “DA4”, […] (SEQ ID NO: 10) referred to therein as “DA1”, […] (SEQ ID NO: 11) referred to therein as “DA3”.
To explore the ability of a surface modified by the compound of the present invention to mimic one or more functional characteristics of a fibronectin coated surface, cells were seeded and monitored on both such surfaces under the same culture conditions. In brief, LNCaP cells, MIA-PaCa-2, A-172, or RKO cells from ATCC were cultured according to supplier's instructions. LNCaP were cultured in RPMI-1640 Medium (ATCC Catalog No. 30-2001) supplemented with 10% fetal bovine serum. MIA-PaCa-2 and A-172 cells were grown in DMEM (Invitrogen cat #11885-084) supplemented with 10% fetal bovine serum. RKO cells were cultured in EMEM (ATCC cat#30-2003) supplemented with 10% fetal bovine serum. Cells were cultured at 37° C. in a humidified incubator with 5% CO2. For seeding, media was removed, cells were washed with PBS, and 3 ml of 0.25% Trypsin-EDTA was added to the cells in T-75 flask. Flasks were examined under the microscope, once cells detached from the surface, 10 ml culture media was added to neutralize Trypsin. Cells were transferred to a 15 ml. BD Falcon tube and centrifuged at 200×g for 10 min. Supernatant was removed and the cell pellet washed once with DMEM (Invitrogen cat #11885-084) having 200 microgram/ml BSA. Cells were resuspended in DMEM having 200 microgram/ml BSA and seeded at 50,000 cells/cm^2 in 1.0 ml media per well of a 24 well plate. The culture surface was either a surface modified by the compound […] (SEQ ID NO: 7) or BD BioCoat fibronectin which served as a positive control. Additionally, BD tissue culture treated surface served as negative control. Cells were incubated for 24 hr at 37° C. in a humidified incubator with 5% CO2.
In addition to the aforementioned visual analysis, MTS analysis was carried out to quantify the degree of cell attachment. In brief, media was removed by inverting the plate and 300 μl complete media containing MTS (Promega cat #G3582) was added to each well of a 24 well plate. Cells were incubated for 1 hr at 37° C. in a humidified incubator at 5% CO2. Following incubation, 0.1 ml media was transferred to BD Falcon™ 96 well plate and absorbance was measured at 490 nm.

RKO cells = assay: Confluence quantification by IncuCyte of RKO cell attachment; type: cell-based, human; settings: FIG. 3, treated surface vs BD BioCoat fibronectin
Description: (§1) To explore the ability of a surface modified by the compound of the present invention to mimic one or more functional characteristics of a fibronectin coated surface, cells were seeded and monitored on both such surfaces under the same culture conditions. In brief, LNCaP cells, MIA-PaCa-2, A-172, or RKO cells from ATCC were cultured according to supplier's instructions. LNCaP were cultured in RPMI-1640 Medium (ATCC Catalog No. 30-2001) supplemented with 10% fetal bovine serum. MIA-PaCa-2 and A-172 cells were grown in DMEM (Invitrogen cat #11885-084) supplemented with 10% fetal bovine serum. RKO cells were cultured in EMEM (ATCC cat#30-2003) supplemented with 10% fetal bovine serum. Cells were cultured at 37° C. in a humidified incubator with 5% CO2. For seeding, media was removed, cells were washed with PBS, and 3 ml of 0.25% Trypsin-EDTA was added to the cells in T-75 flask. Flasks were examined under the microscope, once cells detached from the surface, 10 ml culture media was added to neutralize Trypsin. Cells were transferred to a 15 ml. BD Falcon tube and centrifuged at 200×g for 10 min. Supernatant was removed and the cell pellet washed once with DMEM (Invitrogen cat #11885-084) having 200 microgram/ml BSA. Cells were resuspended in DMEM having 200 microgram/ml BSA and seeded at 50,000 cells/cm^2 in 1.0 ml media per well of a 24 well plate. […]

LNCaP cells [2] = assay: LNCaP cell attachment and spreading on modified surface, visualized by microscope; type: cell-based, human; settings: 24 hr post-seeding, microscope images (FIG. 1), surface modified by compound vs BD BioCoat fibronectin
Description: as §1

LNCaP cells [3] = assay: MTS assay quantification of LNCaP cell attachment; type: cell-based, human; settings: 24 hr post-seeding, FIG. 2, treated surface vs BD BioCoat fibronectin
Description: as §1, with “min.” for “min. Supernatant was removed and the cell pellet washed once with DMEM (Invitrogen cat #11885-084) having 200 microgram/ml BSA. Cells were resuspended in DMEM having 200 microgram/ml BSA and seeded at 50,000 cells/cm^2 in 1.0 ml media per well of a 24 well plate.”
In addition to the aforementioned visual analysis, MTS analysis was carried out to quantify the degree of cell attachment. […] Following incubation, 0.1 ml media was transferred to BD Falcon™ 96 well plate and absorbance was measured at 490 nm.

A-172 cells = assay: Confluence quantification by IncuCyte of A-172 cell attachment; type: cell-based, human; settings: FIG. 3, treated surface vs BD BioCoat fibronectin
Description: as §1

| Sequence | cell attachment and spreading [1] | also measured |
| --- | --- | --- |
| KSGRARADRVPHSRNTITLTNGGSGGSGGSGRGDSP (two regions of a fibronectin cell-binding domain joined by a flexible linker) [SEQ ID NO: 11] | supported cell attachment and spreading similar to a BD BioCoat fibronectin surface | – |
| KSGRARADRVPHSRNTITLTNSGSGSGSGSGRGDSP (two regions of a fibronectin cell-binding domain joined by a flexible linker) [SEQ ID NO: 10] | supported cell attachment and spreading similar to a BD BioCoat fibronectin surface | – |
| KSGRGRGDRVPHSRNGITLTNSGSGSGSGSGRGDSP (two regions of a fibronectin cell-binding domain joined by a flexible linker) [SEQ ID NO: 12] | supported cell attachment and spreading similar to a BD BioCoat fibronectin surface | – |
| KSGRPREDRVPHSRNSITLTNGGGSGGGSGGGRGDSP (two regions of a fibronectin cell-binding domain joined by a flexible linker) [SEQ ID NO: 9] | supported cell attachment and spreading similar to a BD BioCoat fibronectin surface | – |
| KSGRPREDRVPHSRNSITLTNSGSGSGSGSGRGDSP (two regions of a fibronectin cell-binding domain joined by a flexible linker) [SEQ ID NO: 7] | supported cell attachment and spreading similar to a BD BioCoat fibronectin surface | confluence quantification by IncuCyte (RKO cells): comparable; cell attachment and spreading (LNCaP cells [2]): comparable; LNCaP cell attachment (MTS assay, absorbance at 490 nm) (LNCaP cells [3]): comparable; confluence quantification by IncuCyte (A-172 cells): comparable |
| KSGRPREDRVPHSRNSITLTNSGTGSGTGSGRGDSP (two regions of a fibronectin cell-binding domain joined by a flexible linker) [SEQ ID NO: 8] | supported cell attachment and spreading similar to a BD BioCoat fibronectin surface | – |
